Measurements: patent US20050261130A1, “Novel surfactants and formulations” (Monsanto Technology LLC, priority 2000, published 2005)

Columns and labels:
[1] = Compatibility of surfactant with diammonium glyphosate concentrate (no phase separation, 50° C., 1 week); format: physicochemical; details: 50° C. oven 1 week; for Compatible w/31% a.e. diammonium glyphosate at 10 wt % loading: 31 wt. % a.e. diammonium glyphosate/10 wt. % surfactant; for Compatible w/37% a.e. diammonium glyphosate at 12 wt % loading: 37 wt. % a.e. diammonium glyphosate/12 wt. % surfactant
Description: For the 31 wt. % a.e. NH4^+glyphosate/10 wt. % surfactant compositions: • 1.48 g of 41.9 wt % a.e. aqueous glyphosate diammonium (1.7 eq) salt was weighed into a vial. To the same vial was added 0.2 g of surfactant and 0.32 g deionized water. The remainder of the protocol is the same as that described for the 31 wt % potassium glyphosate samples. The surfactants identified in Table 4 that were compatible at the 31% a.e. ammonium/10 wt. % surfactant loading are indicated in Table 5 below.
For the 37 wt. % a.e. NH4^+glyphosate/12 wt. % surfactant compositions: • 1.76 g of 41.9 wt % a.e. aqueous glyphosate diammonium (1.7 eq) salt was weighed into a vial. To the same vial was added […]. The remainder of the protocol is the same as that described for the 31 wt % potassium glyphosate samples. The surfactants identified in Table 4 that were compatible at the 37% a.e. ammonium/12 wt. % surfactant loading are indicated in Table 5 below.

[2] = Cloud point of aqueous concentrate compositions; format: physicochemical; details: 12 wt % surfactant
Description: For aqueous solution concentrates, high temperature storage stability is often indicated by a cloud point of about 50° C. or more. Cloud point of a composition is normally determined by heating the composition until the solution becomes cloudy, and then allowing the composition to cool, with agitation, while its temperature is continuously monitored. A temperature reading taken when the solution clears is a measure of cloud point. A cloud point of 50° C. or more is normally considered acceptable for most commercial purposes for a glyphosate SL formulation. Ideally the cloud point should be 60° C. or more, and the composition should withstand temperatures as low as about −10° C. for up to about 7 days without crystal growth, even in the presence of seed crystals of the glyphosate salt.
Cloud points were measured by heating a small amount of the material in a test tube until the solution became hazy or cloudy then removing the test tube from the heat and observing the temperature at which the solution became clear on cooling. The temperature at which the solution became clear is noted as the cloud point.
Cloud point was determined for certain liquid compositions of Examples 66-69 as follows. A sample of the composition in a test tube was heated in a water bath until it became cloudy. The test tube was then removed from the water bath and the sample stirred with a thermometer until it became clear. The temperature at which the sample became clear was recorded as the cloud point of the composition.

[3] = Brookfield viscosity (Model DV-11, Small Sample Adapter); format: physicochemical; details: 10° C.
Description: (§1) Viscosities were measured using a Haake Model VT500(Haake, Inc., Karlsruhe Germany) equipped with the appropriate MV series cup and bob sensor system at a shear rate of 45 sec^−1. The temperature was varied with the attached water bath. For a few samples for which insufficient sample was available the viscosities were measured with a Brookfield Model DV-11 equipped with a Small Sample Adapter (Brookfield Laboratories, Inc., Stoughton, Mass.).

[4] = Compatibility of surfactant with potassium glyphosate concentrate (no phase separation, 50° C., 1 week); format: physicochemical; details: 50° C. oven 1 week; for Compatible w/37% a.e. K + glyphosate at 12 wt % loading: 37 wt. % a.e. potassium glyphosate/12 wt. % surfactant; for Compatible w/40% a.e. K + glyphosate at 10% wt loading: 40 wt. % a.e. potassium glyphosate/10 wt. % surfactant; for Compatible w/45% a.e. K + glyphosate at 15% wt loading: 45 wt. % a.e. potassium glyphosate/15 wt. % surfactant
Description: For the 31 wt. % a.e. potassium glyphosate/10 wt. % surfactant compositions: 1.550 g of 40 wt. % a.e. aqueous glyphosate potassium salt solution was weighed into a vial. To the same vial, 0.200 g of surfactant was added. Enough deionized water was then added to the contents to bring the total weight to 2.000g. The mixture was stirred for 2 hours at room temperature and checked to see if a solution had been formed. If a solution was present, the test vial was allowed to stand at room temperature overnight. If a solution was still present, the test vial was placed in a 50° C. oven for 1 week. If no phase separation had occurred in one week, the surfactant being tested was considered “compatible.” All of the surfactants identified in Table 4 were compatible at the 31% a.e. potassium/10 wt. % surfactant loading.
For the 37 wt. % a.e. potassium glyphosate/12 wt. % surfactant compositions: 41.1 g of 45 wt. % a.e. aqueous glyphosate potassium salt was weighed to a container. To the same container was added 6.0 g of surfactant and 2.9 g deionized water for a total weight of 50.0 g. The remainder of the protocol is the same as that described for the 31 wt. % samples. The surfactants identified in Table 4 that were compatible at the 37% a.e. potassium/12 wt. % surfactant loading are indicated in Table 5 below.
For the 40 wt. % a.e. potassium glyphosate/10 wt. % surfactant compositions: 1.79 g of 45 wt. % a.e. aqueous glyphosate potassium salt was weighed into a vial. To the same vial was added 0.2 g of surfactant. The remainder of the protocol is the same as that described for the 31 wt. % samples. The surfactants identified in Table 4 that were compatible at the 40% a.e. potassium/10 wt. % surfactant loading are indicated in Table 5 below.
For the 45 wt. % a.e. potassium glyphosate/15 wt. % surfactant compositions: 1.100 g of solid mono potassium glyphosate was weighed into a vial. To the same vial was added 0.300 g surfactant. Enough deionized water was added to the vial to bring the final weight to 2.000 g. The remainder of the protocol is the same as that described for the 31 wt. % samples. The surfactants identified in Table 4 that were compatible at the 45% a.e. potassium/[…] are indicated in Table 5 below.

[5] = Haake viscosity (Haake VT500, shear rate 45 sec^−1); format: physicochemical; details: 12 wt % surfactant
Description: as §1

[6] = cited from earlier work
[7] = Density of formulations (Mettler DA-300 Density Meter); format: physicochemical; details: 20° C.; 50.0% glyphosate acid (61% potassium glyphosate) solution of Example A
Description: The density was then determined using a Mettler DA-300 Density Meter and the concentrations in grams per liter was calculated.

[8] = Specific gravity (Mettler DA-300 Density/Specific Gravity Meter); format: physicochemical; details: 20/15.6° C.; 30% a.e. by weight glyphosate monobasic salt solutions
Description: Specific gravities are measured using a Mettler DA-300 Density/Specific Gravity Meter.

[9] = system: Velvetleaf (ABUTH) and Japanese millet (ECHCF); test: Greenhouse herbicidal effectiveness, overall statements for both weeds; format: in vivo, Abutilon theophrasti; Echinochloa crus-galli; details: summary sentence of the respective Example
Source text: The herbicidal effectiveness data set forth herein report “inhibition” as a percentage following a standard procedure in the art which reflects a visual assessment of plant mortality and growth reduction by comparison with untreated plants, made by technicians specially trained to make and record such observations. In all cases, a single technician makes all assessments of percent inhibition within any one experiment or trial. Such measurements are relied upon and regularly reported by Monsanto Company in the course of its herbicide business.
The following procedure was used for testing compositions of the Examples to determine herbicidal effectiveness, except where otherwise indicated. […]
Pots were assigned to different treatments in a fully randomized experimental design with 6 replications. A set of pots was left untreated as a reference against which effects of the treatments could later be evaluated.
Application of glyphosate compositions was made by spraying with a track sprayer fitted with a 9501 E nozzle calibrated to deliver a spray volume of 93 liters per hectare (l/ha) at a pressure of 165 kilopascals (kPa). After treatment, pots were returned to the greenhouse until ready for evaluation. […]

Compatible w/31% a.e. diammonium glyphosate at 10 wt % loading [1]	Compatible w/37% a.e. diammonium glyphosate at 12 wt % loading [1]	Cloud Point Data 37% a.e. K + glyphosate at 12 wt % loading [2] [°C]	Compatible w/37% a.e. K + glyphosate at 12 wt % loading [4]	Compatible w/45% a.e. K + glyphosate at 15% wt loading [4]	Viscosity Data 37% a.e. K + glyphosate at 12 wt % loading, Haake Vis. ([5]; 0° C.) [cPs]	Viscosity Data 37% a.e. K + glyphosate at 12 wt % loading, Haake Vis. ([5]; 5° C.) [cPs]	Viscosity Data 37% a.e. K + glyphosate at 12 wt % loading, Haake Vis. ([5]; 10° C.) [cPs]	Viscosity Data 37% a.e. K + glyphosate at 12 wt % loading, Haake Vis. ([5]; 15° C.) [cPs]	Viscosity Data 37% a.e. K + glyphosate at 12 wt % loading, Haake Vis. ([5]; 25° C.) [cPs]	Viscosity Data 37% a.e. K + glyphosate at 12 wt % loading, Haake Vis. ([5]; −5° C.)	Viscosity Data 37% a.e. K + glyphosate at 12 wt % loading, Brookfield Vis. ([3]; Spindle 31, 12 rpm)	Viscosity Data 37% a.e. K + glyphosate at 12 wt % loading, Brookfield Vis. ([3]; Spindle 31, 60 rpm)	Compound	further results
Yes	Yes	>90	Yes	Yes									CCCCCCCCNCC(O)C(O)C(O)C(O)CO (centres unmarked) [AA]	Viscosity Data 37% a.e. K + glyphosate at 12 wt % loading, Brookfield Viscosity ([3]; Spindle 31, 12 rpm): 12 rpm, 52.6 cPs; Viscosity Data 37% a.e. K + glyphosate at 12 wt % loading, Brookfield Viscosity ([3]; Spindle 31, 60 rpm): 60 rpm, 60.1 cPs; Compatible w/40% a.e. K + glyphosate at 10% wt loading [4]: Yes
No	No		Yes								12 rpm, 86.5 cp	60 rpm, 88.2 cp	CCCCCCCCCCCCCCCCCCN(C)CC(O)C(O)C(O)C(O)CO (centres unmarked) [SS]	
Yes	Yes		Yes	Yes							12 rpm, 76.5 cp	60 rpm, 78.2 cp	CCCCCCN(CCCN(CCCCCC)CC(O)C(O)C(O)C(O)CO)CC(O)C(O)C(O)C(O)CO (centres unmarked) [Surfactant AAA, 1,6 hexylaminoglucitol propane]	
No	No		Yes								12 rpm, 114 cp	60 rpm, 113 cp	CCCCCCCCN(C)CC(O)C(O)C(O)C(O)CO (centres unmarked) [UU]	

The remaining lines, values behind:

Compound	Compatible w/31% a.e. diammonium glyphosate at 10 wt % loading [1]	Compatible w/37% a.e. diammonium glyphosate at 12 wt % loading [1]	Cloud Point Data 37% a.e. K + glyphosate at 12 wt % loading [2] [°C]	Compatible w/37% a.e. K + glyphosate at 12 wt % loading [4]	Compatible w/45% a.e. K + glyphosate at 15% wt loading [4]	Viscosity Data 37% a.e. K + glyphosate at 12 wt % loading, Haake Vis. ([5]; 0° C.) [cPs]	Viscosity Data 37% a.e. K + glyphosate at 12 wt % loading, Haake Vis. ([5]; 5° C.) [cPs]	Viscosity Data 37% a.e. K + glyphosate at 12 wt % loading, Haake Vis. ([5]; 10° C.) [cPs]	Viscosity Data 37% a.e. K + glyphosate at 12 wt % loading, Haake Vis. ([5]; 15° C.) [cPs]	Viscosity Data 37% a.e. K + glyphosate at 12 wt % loading, Haake Vis. ([5]; 25° C.) [cPs]	Viscosity Data 37% a.e. K + glyphosate at 12 wt % loading, Haake Vis. ([5]; −5° C.)	Viscosity Data 37% a.e. K + glyphosate at 12 wt % loading, Brookfield Vis. ([3]; Spindle 31, 12 rpm)	Viscosity Data 37% a.e. K + glyphosate at 12 wt % loading, Brookfield Vis. ([3]; Spindle 31, 60 rpm)	further results
NCCOCCOCCN [DD]			>90	Yes		231.17	150.26	138.80	82.51	49.37	397.16 cPs			
CCCCN(CCCC)CCCN [F]			>90	Yes	Yes	273.01	173.57	142.38	110.89	57.29	400.48 cPs			Compatible w/40% a.e. K + glyphosate at 10% wt loading [4]: Yes
CC(C)CC(C)CC(C)COCCCNCCCN (centres unmarked) [R]			>90	Yes		2517	2269	1963	1420	1077	−5° C., too thick			
O=C(O)CNCP(=O)(O)O [glyphosate, N-phosphonomethylglycine]														Solubility in water ([6]; 25° C.): 1.16 % by weight
O=C(O)CNCP(=O)([O-])O.[K+] [potassium, glyphosate potassium salt]														Density of the resulting solution [7]: approximately 1.4661 grams/milliliter; Specific Gravity [8]: 1.2539; Solubility in pure water ([6]; 20° C., as salt): about 54 % by weight; Solubility in pure water, glyphosate acid equivalent ([6]; 20° C.): about 44 % glyphosate acid equivalent (a.e.) by weight
(C12-14)O(CHCH3CH2)O—(CHCH3CH2)N(EO)x(EO)y x + y = 5 [Composition M121]														Herbicidal effectiveness overall or on both ABUTH and ECHCF, comparison in words [9]: more effective for potentiating the IPA
